Measurements published in patent US7820202B2, “Extended release particle dispersion” (Laboratorios Farmaceuticos Rovi S.A., priority 2000, dated 2010).

Assays:
[1] = cited from earlier work
[2] = Encapsulation efficiency of drug in PLGA extended release particles; type: physicochemical; details: poly(d,l-lactide-co-glycolide) particles formed by mixing two liquid preproducts (ethyl acetate polymer solution / aqueous phase)
Description: A solution of poly(d,l-lactide-co-glycolide) (75/25, RG752 or 50/50, RG 502H or 503H from Böhringer Ingelheim) (40% w/w) in ethyl acetate (syringe 1) (200μl) (first liquid preproduct) is mixed with an aqueous phase (water for injection, Tween 80- or alternatively Pluronic F 68-, Na carboxy methylcellulose) (syringe 2) (2ml) (second liquid preproduct) by connecting the two syringes with a connector or by screwing the two syringes together and by pushing the plungers forward and backward (25 mixing cycles). The extended release particles are thereby formed, which are dispersed in the aqueous phase and which are ready to be injected.
(§1) Like example 1. In addition, a water-insoluble salt of leuprolide, leuprolide oleate, was formed from aqueous leuprolide acetate and sodium oleate solutions. The insoluble salt was separated from the aqueous phase, dried and then added to the poly(d,l-lactide-co-glycolide) solution to form the first liquid preproduct, wherein the drug is dispersed and/or dissolved in the polymer solution. The first liquid preproduct is mixed with and dispersed in the second liquid preproduct.

[3] = Drug release from extended release particles in pH 7.4 phosphate buffer; type: physicochemical; details: pH 7.4 phosphate buffer (simulates body fluids); compared to the water-soluble salt, leuprolide acetate
Text: as §1

For CC(=O)OCC(COC(C)=O)OC(C)=O [triacetin], the solubility in water [1] is given as “approx. 8%”.
For CCOC(C)=O [ethylacetate], the solubility in water [1] is listed as “approx. 10%”.
With leuprolide oleate the encapsulation efficiencies [2] was greater than 85% and the “retardation in drug release” value [3] was “even more pronounced retardation in drug release”.
